Experimental data taken from patent publication US7326689B2, “Pseudomycins useful against plant diseases” (Eli Lilly and Company, priority 2000, dated 2008).

Experiments:
Test in all cases: Antifungal growth assay in potato dextrose broth, 24-well
Type in all cases: cell-based
Rhizoctonia solani = conditions: 2x assays
Procedure: (§1) Fungi to be tested were propagated on potato dextrose agar (PDA) plates at room temperature. Stock solutions of pseudomycins and depsipeptide were suspended in dimethylsulfoxide (DMSO) (Sigma) at 5 mg/ml and stored at −20C. Serial dilutions of compounds were done the day of the experiment. All serial dilutions were made in DMSO. […] These are noted in the raw data section.
(§2) Assays were performed in 24-well cell culture clusters (Costar 3524), with 990 ul potato dextrose broth (PDB, Difco) and 10 ul of the compound to be tested in each well. Initial concentrations tested were 50-1.56 ug/ml (final concentration of pseudomycin). Actual concentrations of pseudomycins tested were 50, 25, 12.5, 6.25, 3.12 and 1.56 ug/ml. Each well was inoculated with the appropriate fungus. Unless noted, the fungal inoculum consisted of an ˜4 mm^2 piece of PDA with fungal mycelium. The exceptions were as follows. Ustilago maydis: this fungus grows much like a yeast on PDA, and cells were scraped from the PDA stock plate, resuspended in PDB and 10 ul inoculum added to each well. Monilinia sp.: this fungal mycelium grows as a very loose sheet on top of PDA and would not adhere to agar blocks. Fungal mycelium was ground with a metal rod in 500 ul PDB and 10 ul inoculum was added to each well. Mycosphaeella fijiensis, Septoria passerinii, Septoria triticii: these fungi all grow very slowly and the results were difficult to score if a small piece of agar with fungal mycelium on it was used as an inoculum. For these fungi, the mycelium was ground with a metal rod in 500 ul PDB and 10 ul inoculum was added to each well.
(§3) Wells were scored for fungal growth at two days and five days. Some slow growing fungi were scored at later days for growth because assessment was not possible at two or five days. Growth was scored by comparison to a control consisting of fungus inoculated into 990 ul potato dextrose broth and 10 ul of DMSO (Dimethylsulfoxide). An additional control consisting of fungal inoculum in PDB only was performed to ensure that the DMSO was not inhibitory to fungal growth.
(§4) For assays that were repeated, new stock solutions were made from a second shipment of pseudomycins. Note that pseudomycin B′ and depsipeptide stock solutions were remade from first shipment materials because these were not included in the second shipment. […] Actual concentrations of pseudomycins tested were 2, 1, 0.5, 0.25, 0.125 and 0.0625 ug/ml. A-PO4 and A-FB=pseudomycin A phosphate salt and free base respectively.
(§5) Table 2: Two day results—concentration indicated is lowest level of compound (ug /ml) that results is no growth. NI, no inhibition; p (partial), at least 50% inhibited; -, not determined. If number of assays was greater than one, number of assays performed on the fungus is noted in parentheses. For several slow-growing fungi, days elapsed before observation (if different than two) are noted.
(§6) Table 3: Five day results—concentration indicated is lowest level of compound (ug /ml) that results in no growth. NI, no inhibition; p (partial), at least 50% inhibited; -, not performed on the fungus is noted in parentheses. For several slow-growing fungi, days elapsed before observation (if different than five) are noted.

Septoria tritici = conditions: 3x assays
Procedure: as §1, §2, §3, §4, §5, §6

Drechslera portulacae = conditions: 3x assays
Procedure: as §1, §2, §3, §4, §5, §6

[1] = system: Mycosphaeella fijiensis (8088/88); conditions: 3x assays
Procedure: as §1, §2, §3, §4, §5, §6

[2] = system: Mycosphaeella fijiensis (Sigatoka); conditions: 3x assays
Procedure: as §1, §2, §3, §4, §5, §6

Septoria passerinii = conditions: 3x assays
Procedure: as §1, §2, §3, §4, §5, §6

Penicillium roqueforti = conditions: 3x assays
Procedure: as §1, §2, §3, §4, §5, §6

Geotrichim candidum = conditions: 3x assays
Procedure: as §1, §2, §3, §4, §5, §6

Monilinia sp. = conditions: 2x assays
Procedure: as §1, §2, §3, §4, §5, §6

Ustilago maydis = conditions: 3x assays
Procedure: as §1, §2, §3, §4, §5, §6

Phyllosticta maydis = system: Phyllosticta maydis; design: key: NI, no inhibition; p (partial), at least 50% inhibited
Summary of the method: (§7)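 Compounds were serially diluted in DMSO and tested at final concentrations of 50–1.56 ug/ml (2–0.0625 ug/ml in repeat runs) in potato dextrose broth inoculated with a ~4 mm^2 PDA mycelium plug. M. fijiensis received ground mycelium suspended in PDB instead. The value is the lowest concentration with no growth at 2 and 5 days.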

Bipolaris sorokiniana = system: Bipolaris sorokiniana; design: key: NI, no inhibition; p (partial), at least 50% inhibited
Summary of the method: as §7

Phytophthora cinnemani = system: Phytophthora cinnemani; design: key: NI, no inhibition; p (partial), at least 50% inhibited
Summary of the method: as §7

Drechslera teres = system: Drechslera teres; design: key: NI, no inhibition; p (partial), at least 50% inhibited
Summary of the method: as §7

Alternaria helianthi = system: Alternaria helianthi; design: key: NI, no inhibition; p (partial), at least 50% inhibited; conditions: 2x assays
Summary of the method: as §7

[3] = Table 2 (two day results), observed at 7 day
[4] = Table 3 (five day results), observed at 21 days

Question: pseudomycin A-PO4 was tested. Which “lowest level of compound that results in no growth” value (shortened to “lowest level … in no growth”) (Rhizoctonia solani; five day results) did it give?
Answer: The value was 12.5 µg/mL.

Question: What about the “lowest level … in no growth” value (Rhizoctonia solani; two day results) of the same substance?
Answer: Its value is 6.25 µg/mL.

Question: And the “lowest level … in no growth” value (Septoria tritici; five day results)?
Answer: Its value is 0.25 µg/mL.

Question: What about the “lowest level … in no growth” value (Septoria tritici; two day results) of the same substance?
Answer: Its value is 0.25 µg/mL.

Question: And the “lowest level … in no growth” value (Drechslera portulacae; Table 3 (five day results), observed at 9 day, listed as A-PO4)?
Answer: Its value is 0.06 µg/mL.

Question: What about the “lowest level … in no growth” value (Drechslera portulacae; Table 3 (five day results), observed at 9 day, listed as pseudomycin A (PO4)) of the same substance?
Answer: Its value is 0.0625 µg/mL.

Question: And the “lowest level … in no growth” value (Drechslera portulacae; two day results)?
Answer: The value was 0.06 µg/mL.

Question: What about the “lowest level … in no growth” value [1, 3] of the same substance?
Answer: The value was 0.12 µg/mL.

Question: And the “lowest level … in no growth” value [1, 4]?
Answer: Its value is 0.25 µg/mL.

Question: And the “lowest level … in no growth” value [2, 3]?
Answer: The value was 1 µg/mL.

Question: What about the “lowest level … in no growth” value [2, 4] of the same substance?
Answer: Its value is 1 µg/mL.

Question: And the “lowest level … in no growth” value (Septoria passerinii; five day results)?
Answer: Its value is 0.12 µg/mL.

Question: And the “lowest level … in no growth” value (Septoria passerinii; two day results)?
Answer: Its value is 0.125 µg/mL.

Question: What about the “lowest level … in no growth” value (Penicillium roqueforti; five day results) of the same substance?
Answer: Its value is 3.12 µg/mL.

Question: And the “lowest level … in no growth” value (Penicillium roqueforti; two day results)?
Answer: Its value is 0.5 µg/mL.

Question: What about the “lowest level … in no growth” value (Geotrichim candidum; five day results) of the same substance?
Answer: Its value is 6.25 µg/mL.

Question: What about the “lowest level … in no growth” value (Geotrichim candidum; two day results) of the same substance?
Answer: Its value is 12.5 µg/mL.

Question: And the “lowest level … in no growth” value (Monilinia sp.; five day results)?
Answer: Its value is 12.5 µg/mL.

Question: And the “lowest level … in no growth” value (Monilinia sp.; two day results)?
Answer: Its value is 12.5 µg/mL.

Question: What about the “lowest level … in no growth” value (Ustilago maydis; five day results) of the same substance?
Answer: The value was 1 µg/mL.

Question: What about the “lowest level … in no growth” value (Ustilago maydis; two day results) of the same substance?
Answer: The value was 0.5 µg/mL.

Question: What about the “lowest level … in no growth” value (Phyllosticta maydis; five day results) of the same substance?
Answer: Its value is “NI”.

Question: What about the “lowest level … in no growth” value (Phyllosticta maydis; two day results) of the same substance?
Answer: The value was “p at 50”.

Question: What about the “lowest level … in no growth” value (Bipolaris sorokiniana; five day results) of the same substance?
Answer: Its value is “NI”.

Question: What about the “lowest level … in no growth” value (Bipolaris sorokiniana; two day results) of the same substance?
Answer: The value was “NI”.

Question: And the “lowest level … in no growth” value (Phytophthora cinnemani; five day results)?
Answer: The value was “NI”.

Question: And the “lowest level … in no growth” value (Phytophthora cinnemani; two day results)?
Answer: The value was “NI”.

Question: And the “lowest level … in no growth” value (Drechslera teres; five day results)?
Answer: Its value is “NI”.

Question: And the “lowest level … in no growth” value (Drechslera teres; two day results)?
Answer: The value was “NI”.

Question: What about the “lowest level … in no growth” value (Alternaria helianthi; five day results) of the same substance?
Answer: Its value is 25 µg/mL.

Question: And the “lowest level … in no growth” value (Alternaria helianthi; two day results)?
Answer: The value was 25 µg/mL.
